Here are results for 10 compounds from ChEMBL document CHEMBL4834486 (Bioorg Med Chem, 2021).

Each structure is given as a SMILES string. The source made the active and inactive calls. The rule behind the calls is not given here.

One test has as its system MCF7. Description: Antiproliferative activity against human MCF7 cells assessed as inhibition of cell proliferation measured after 72 hrs by CCK-8 assay. Type of test: functional, cell-based. The settings on record: MCF7, 72 h. For orientation: Tetrazolium assays rely on reduction of a dye to a coloured formazan, in cell work by metabolically active cells.
Test [1] deals with MDA-MB-231. The test can be described thus: Antiproliferative activity against human MDA-MB-231 cells assessed as inhibition of cell proliferation measured after 72 hrs by CCK-8 assay. Format: functional, cell-based. The settings on record: MDA-MB-231, 72 h.
The subject of a further test is MCF-10A. Description: Cytotoxicity against human MCF-10A cells assessed as inhibition of cell proliferation measured after 72 hrs by CCK-8 assay. Type of test: cell-based.
For test [2], the system named is MDA-MB-231. Description: Cell cycle arrest in human MDA-MB-231 cells assessed as accumulation of cells at G1 phase at 1.25 uM measured after 72 hrs by PI staining based flow cytometry method (reference value: 51.58%). Format: functional. A general note: Flow cytometry measures light scatter and fluorescence of single cells or particles in a stream.
The test system of test [3] is MDA-MB-231. The test can be described thus: Cell cycle arrest in human MDA-MB-231 cells assessed as accumulation of cells at S phase at 1.25 uM measured after 72 hrs by PI staining based flow cytometry method (reference value: 36.19%). Type of test: functional.
The test system of test [4] is MDA-MB-231. The test can be described thus: Cell cycle arrest in human MDA-MB-231 cells assessed as accumulation of cells at G2/M phase at 1.25 uM measured after 72 hrs by PI staining based flow cytometry method (reference value: 12.24%). Format: functional.
Test [5] relates to MDA-MB-231. The test can be described thus: Cell cycle arrest in human MDA-MB-231 cells assessed as accumulation of cells at G1 phase at 2.5 uM measured after 72 hrs by PI staining based flow cytometry method (reference value: 51.58%). Type of test: functional.
Test [6] concerns MDA-MB-231. The test can be described thus: Cell cycle arrest in human MDA-MB-231 cells assessed as accumulation of cells at S phase at 2.5 uM measured after 72 hrs by PI staining based flow cytometry method (reference value: 36.19%). Type of test: functional.
In test [7] the test system is MDA-MB-231. Description: Cell cycle arrest in human MDA-MB-231 cells assessed as accumulation of cells at G2/M phase at 2.5 uM measured after 72 hrs by PI staining based flow cytometry method (reference value: 12.24%). Type of test: functional.
Test [8] concerns MDA-MB-231. The test can be described thus: Cell cycle arrest in human MDA-MB-231 cells assessed as accumulation of cells at G1 phase at 5 uM measured after 72 hrs by PI staining based flow cytometry method (reference value: 51.58%). Type of test: functional.
The test system of test [9] is MDA-MB-231. The test can be described thus: Cell cycle arrest in human MDA-MB-231 cells assessed as accumulation of cells at S phase at 5 uM measured after 72 hrs by PI staining based flow cytometry method (reference value: 36.19%). Format: functional.
The subject of test [10] is MDA-MB-231. The test can be described thus: Cell cycle arrest in human MDA-MB-231 cells assessed as accumulation of cells at G2/M phase at 5 uM measured after 72 hrs by PI staining based flow cytometry method (reference value: 12.24%). Type of test: functional.
In test [11] the test system is MDA-MB-231. Description: Induction of apoptosis in human MDA-MB-231 cells assessed as viable cells at 1.25 uM measured after 72 hrs by Annexin V-FITC/PI staining based flow cytometry method (reference value: 93.27%). Type of test: functional. The settings on record: read-out: Activity.
The test system of test [12] is MDA-MB-231. Description: Induction of apoptosis in human MDA-MB-231 cells assessed as early apoptotic cells at 1.25 uM measured after 72 hrs by Annexin V-FITC/PI staining based flow cytometry method (reference value: 4.42%). Type of test: functional.
The subject of test [13] is MDA-MB-231. Description: Induction of apoptosis in human MDA-MB-231 cells assessed as late apoptotic cells at 1.25 uM measured after 72 hrs by Annexin V-FITC/PI staining based flow cytometry method (reference value: 1.34%). Format: functional.
The subject of test [14] is MDA-MB-231. Description: Induction of apoptosis in human MDA-MB-231 cells assessed as necrotic cells at 1.25 uM measured after 72 hrs by Annexin V-FITC/PI staining based flow cytometry method (reference value: 0.97%). Format: functional.
Test [15] deals with MDA-MB-231. Description: Induction of apoptosis in human MDA-MB-231 cells assessed as viable cells at 2.5 uM measured after 72 hrs by Annexin V-FITC/PI staining based flow cytometry method (reference value: 93.27%). Type of test: functional. The settings on record: read-out: Activity.
Test [16] concerns MDA-MB-231. The test can be described thus: Induction of apoptosis in human MDA-MB-231 cells assessed as early apoptotic cells at 2.5 uM measured after 72 hrs by Annexin V-FITC/PI staining based flow cytometry method (reference value: 4.42%). Format: functional.
The test system of test [17] is MDA-MB-231. Description: Induction of apoptosis in human MDA-MB-231 cells assessed as late apoptotic cells at 2.5 uM measured after 72 hrs by Annexin V-FITC/PI staining based flow cytometry method (reference value: 1.34%). Format: functional.
Test [18] relates to MDA-MB-231. Description: Induction of apoptosis in human MDA-MB-231 cells assessed as necrotic cells at 2.5 uM measured after 72 hrs by Annexin V-FITC/PI staining based flow cytometry method (reference value: 0.97%). Format: functional.
Test [19] has as its system MDA-MB-231. The test can be described thus: Induction of apoptosis in human MDA-MB-231 cells assessed as viable cells at 5 uM measured after 72 hrs by Annexin V-FITC/PI staining based flow cytometry method (reference value: 93.27%). Type of test: functional. The settings on record: read-out: Activity.
Test [20] deals with MDA-MB-231. Description: Induction of apoptosis in human MDA-MB-231 cells assessed as early apoptotic cells at 5 uM measured after 72 hrs by Annexin V-FITC/PI staining based flow cytometry method (reference value: 4.42%). Format: functional.
Test [21] concerns MDA-MB-231. The test can be described thus: Induction of apoptosis in human MDA-MB-231 cells assessed as late apoptotic cells at 5 uM measured after 72 hrs by Annexin V-FITC/PI staining based flow cytometry method (reference value: 1.34%). Type of test: functional.
For test [22], the system named is MDA-MB-231. Description: Induction of apoptosis in human MDA-MB-231 cells assessed as necrotic cells at 5 uM measured after 72 hrs by Annexin V-FITC/PI staining based flow cytometry method (reference value: 0.97%). Format: functional.
The test system of test [23] is MDA-MB-231. Description: Induction of ROS generation in human MDA-MB-231 cells at 1.25 uM measured after 72 hrs by DCFH-DA staining based flow cytomtery (reference value: 4.37%). Format: functional.
The test system of test [24] is MDA-MB-231. The test can be described thus: Induction of ROS generation in human MDA-MB-231 cells at 2.5 uM measured after 72 hrs by DCFH-DA staining based flow cytometry (reference value: 4.37%). Format: functional.
Test [25] relates to MDA-MB-231. The test can be described thus: Induction of ROS generation in human MDA-MB-231 cells at 5 uM measured after 72 hrs by DCFH-DA staining based flow cytometry (reference value: 4.37%). Format: functional.
Test [26] relates to MDA-MB-231. Description: Induction of DNA damage in human MDA-MB-231 cells assessed as increase in generation of endogenous double strand DNA break adducts measured after 72 hrs by comet assay. Format: functional, cell-based. Particulars: dose 1.25-5 µM.
For test [27], the system named is MDA-MB-231. The test can be described thus: Induction of DNA damage in human MDA-MB-231 cells assessed as increase in tail DNA measured after 72 hrs by comet assay. Type of test: functional, cell-based. The settings on record: dose 1.25-5 µM.
The test system of test [28] is MDA-MB-231. The test can be described thus: Inhibition of cell migration in human MDA-MB-231 cells measured after 24 hrs by scratch wound healing assay. Format: functional, cell-based. The settings on record: dose 1.25-5 µM.
The test system of test [29] is MDA-MB-231. The test can be described thus: Inhibition of cell invasion in human MDA-MB-231 cells at 1.25 to 5 uM measured after 24 hrs by transwell assay. Particulars: dose 1.25-5 µM. Type of test: functional, cell-based.
The subject of test [30] is MDA-MB-231. Description: Inhibition of cell adhesion in human MDA-MB-231 cells measured after 72 hrs by fluorescence microscopy. Type of test: functional, cell-based. The settings on record: dose 1.25-5 µM.

One may read the IC50 as the midpoint of a concentration-inhibition curve. For the compound `COc1ccc(-c2nc(COC(=O)[C@H](Cc3ccc(N(CCCl)CCCl)cc3)NC(=O)OC(C)(C)C)cc3c2[nH]c2ccccc23)cc1`, the figures for the IC50 with MCF7, in the test with MDA-MB-231 [1] and in the test with MCF-10A were 5.31 µM, 19.6 µM and greater than 40 µM, respectively.
The corresponding values for `COc1ccc(-c2nc(CO)cc3c2[nH]c2ccccc23)cc1` are 15.8 µM, greater than 20 µM and greater than 40 µM.
The matching figures for `OCc1cc2c(cn1)[nH]c1ccccc12`: greater than 20 µM, greater than 20 µM and greater than 40 µM.
For the compound `COC(=O)[C@H](Cc1ccc(N(CCCl)CCCl)cc1)NC(=O)CCCC(=O)OCc1cc2c([nH]c3ccccc32)c(C)n1`, the figures for the IC50 with MCF7, in the test with MDA-MB-231 [1] and in the test with MCF-10A were greater than 20 µM, greater than 20 µM and greater than 40 µM, respectively.
Turning to `COc1ccc(-c2nc(COC(=O)[C@H](Cc3ccc(N(CCCl)CCCl)cc3)NC=O)cc3c2[nH]c2ccccc23)cc1`, the values for the IC50 with MCF7, in the test on MDA-MB-231 [1] and in the test with MCF-10A were 4.23 µM, 5.72 µM and 31.9 µM, respectively.
The matching figures for `COC(=O)[C@H](Cc1ccc(N(CCCl)CCCl)cc1)NC(=O)CCC(=O)OCc1cc2c([nH]c3ccccc32)c(-c2ccc(OC)cc2)n1`: 16.9 µM, greater than 20 µM and greater than 40 µM.
The matching figures for `CC(C)(C)OC(=O)N[C@@H](Cc1ccc(N(CCCl)CCCl)cc1)C(=O)OCc1cc2c(cn1)[nH]c1ccccc12`: 3.43 µM, 16.9 µM and greater than 40 µM.
For `Cc1nc(CO)cc2c1[nH]c1ccccc12`, the figures for the IC50 with MCF7, with MDA-MB-231 [1] and in the test with MCF-10A were 11.3 µM, greater than 20 µM and greater than 40 µM, respectively.
In the case of `Cc1nc(COC(=O)[C@H](Cc2ccc(N(CCCl)CCCl)cc2)NC=O)cc2c1[nH]c1ccccc12`, the IC50 in the test with MCF7 amounted to 1.79 µM; with MDA-MB-231 [1], 4.96 µM; in the test with MCF-10A, 22.5 µM. Further, the Activity in the test with MDA-MB-231 [2] was 47.85%; in the test with MDA-MB-231 [3] it was 38.53%; in the test with MDA-MB-231 [4], 13.62%; with MDA-MB-231 [5], 44.83%; in the test with MDA-MB-231 [6], 38.72%; with MDA-MB-231 [7] it was 16.45%. The Activity in the test on MDA-MB-231 [8] turned out to be 42.06%; in the test on MDA-MB-231 [9] it was 37.74%; with MDA-MB-231 [10], 20.2%; in the test with MDA-MB-231 [12], 8.77%; in the test on MDA-MB-231 [13], 9.71%; in the test on MDA-MB-231 [14], 3.49%. The Activity in the test on MDA-MB-231 [16] came to 12.24%; with MDA-MB-231 [17], 10.22%; in the test with MDA-MB-231 [18] it was 3.39%; in the test on MDA-MB-231 [20] it was 23.28%; in the test on MDA-MB-231 [21], 22.85%; in the test on MDA-MB-231 [22], 5.32%. Further, the Activity is 17.2% in the test on MDA-MB-231 [23]; 20.33% with MDA-MB-231 [24]; 47.15% in the test on MDA-MB-231 [25]; “Dose-Dependent Effect” with MDA-MB-231 [26]; “Dose-Dependent Effect” with MDA-MB-231 [27]. In the test on MDA-MB-231 [11], the viability at 1.25 µM amounted to 78%. Also, the viability at 2.5 µM with MDA-MB-231 [15] was determined as 74.2%. Also, the viability at 5 µM in the test with MDA-MB-231 [19] was determined as 48.5%. The inhibition result with MDA-MB-231 [28] and with MDA-MB-231 [30] was “Dose-Dependent Effect” each time. Further, the inhibition entry in the test with MDA-MB-231 [29] is “Active”.
Turning to `O=CN[C@@H](Cc1ccc(N(CCCl)CCCl)cc1)C(=O)OCc1cc2c(cn1)[nH]c1ccccc12`, the IC50 was 2.7 µM in the test with MCF7, 6.53 µM in the test on MDA-MB-231 [1] and 25.7 µM with MCF-10A.
